Source: ChEMBL document CHEMBL1150902, “Certain norditerpenoid alkaloids and their cardiovascular action” (1998)
Activity calls are given as the source filed them. No cut-off for these calls is given here.

Legend:
Rattus norvegicus [1] = experiment: Cardiovascular activity in anesthetized Sprague-Dawley rat assessed as reduction in heart rate at 200 ug/kg, iv; type: functional; design: scale not given: the % may be the effect or the level left
Rattus norvegicus [2] = experiment: Cardiovascular activity in anesthetized Sprague-Dawley rat assessed as reduction in blood pressure at 400 ug/kg, iv; type: functional; design: scale not given: the % may be the effect or the level left
Rattus norvegicus [3] = experiment: Cardiovascular activity in anesthetized Sprague-Dawley rat assessed as reduction in heart rat at 400 ug/kg, iv; type: functional; design: scale not given: the % may be the effect or the level left
Rattus norvegicus [4] = experiment: Cardiovascular activity in anesthetized Sprague-Dawley rat assessed as reduction in blood pressure at 200 ug/kg, iv; type: functional; design: scale not given: the % may be the effect or the level left
Canis familiaris [5] = experiment: Cardiovascular activity in dog assessed as increase in cardial vagal afferent nerve activity at 150 ug/kg, iv; type: functional, Canis lupus familiaris
Canis familiaris [6] = experiment: Cardiovascular activity in dog assessed as decrease in cardial vagal efferent nerve activity at 150 ug/kg, iv; type: functional, Canis lupus familiaris; design: scale not given: the % may be the effect or the level left
Rattus norvegicus [7] = experiment: Cardiovascular activity in anesthetized Sprague-Dawley rat assessed as induction of cardiac arrhythmia at 400 ug/kg, iv; type: functional, organism-based; conditions: Heart
Rattus norvegicus [8] = experiment: Cardiovascular activity in anesthetized Sprague-Dawley rat assessed as induction of cardiac arrhythmia at 200 ug/kg, iv; type: functional, organism-based; conditions: Heart

Compound: CCN1C[C@]2(COC)CC[C@H](OC)[C@@]34C1[C@@H](C1=C[C@H](OC)[C@@]5(O)C[C@@H]3[C@@H]1[C@H]5OC(=O)c1ccccc1)[C@H](OC)[C@H]24 [PYRODELPHININE]
- Activity (Rattus norvegicus [1]): 7.7%
- Activity (Rattus norvegicus [2]): 14.3%
- Activity (Rattus norvegicus [3]): 8.1%
- Activity (Rattus norvegicus [4]): 23.1%

Compound: CCN1C[C@]2(COC)CC[C@H](OC)[C@]34C1[C@H]([C@H](OC)[C@H]23)[C@@]1(OC(=O)c2cccc3cc5ccccc5cc23)C[C@H](OC)[C@@]2(O)C[C@@H]4[C@@H]1[C@H]2OC(=O)c1ccccc1
- Activity (Rattus norvegicus [1]): 4.2%
- Activity (Rattus norvegicus [2]): 0%
- Activity (Rattus norvegicus [3]): 2%
- Activity (Rattus norvegicus [4]): 20.8%

Compound: CCN1C[C@]2(COC)CC[C@H](OC)[C@]34C1[C@H]([C@H](OC)[C@H]23)[C@@]1(OC(=O)/C=C/c2ccc(O)c(OC)c2)C[C@H](OC)[C@@]2(O)C[C@@H]4[C@@H]1[C@H]2OC(=O)c1ccccc1
- Activity (Rattus norvegicus [1]): 8.3%
- Activity (Rattus norvegicus [2]): 10.6%
- Activity (Rattus norvegicus [3]): 8.3%
- Activity (Rattus norvegicus [4]): 8.8%

Compound: CCN1C[C@]2(OC(=O)c3ccccc3N)CC[C@H](OC)[C@]34C1[C@H](C[C@H]23)[C@@]1(OC(C)=O)C[C@H](OC)[C@H]2C[C@@H]4[C@]1(OC(C)=O)[C@H]2OC
- Activity (Rattus norvegicus [1]): 0%
- Activity (Rattus norvegicus [2]): 0%
- Activity (Rattus norvegicus [3]): 0%
- Activity (Rattus norvegicus [4]): 0%

Compound: CCCCCCCCCCCCCCCCCC(=O)O[C@]12C[C@H](OC)[C@H]3C[C@H]([C@@H]1[C@H]3OC(=O)c1ccc(OC)c(OC)c1)[C@@]13C4[C@@H]2[C@H](OC)[C@@H]1[C@](COC)(CN4CC)[C@H](O)C[C@@H]3OC
- Activity (Rattus norvegicus [1]): 0%
- Activity (Rattus norvegicus [2]): 53.4%
- Activity (Rattus norvegicus [3]): 24.5%
- Activity (Rattus norvegicus [4]): 15.3%

Compound: CC[N+]1([O-])C[C@]2(C)CC[C@H](OC)[C@]34C1[C@H]([C@@H](O)[C@H]23)[C@@]1(O)CC[C@H]2C[C@@H]4[C@@H]1C(=O)O2 (stereo not given in full)
- Activity (Rattus norvegicus [1]): 18.8%
- Activity (Rattus norvegicus [2]): 7.6%
- Activity (Rattus norvegicus [3]): 8.9%
- Activity (Rattus norvegicus [4]): 28.1%

Compound: CCN1C[C@]2(OC(=O)c3ccccc3NC(C)=O)CC[C@H](OC)[C@]34C1[C@H](C[C@H]23)[C@@]12C[C@H](OC)[C@H]3C[C@@H]4[C@]1(OCO2)[C@H]3OC
- Activity (Rattus norvegicus [1]): 5.7%
- Activity (Rattus norvegicus [2]): 16.4%
- Activity (Rattus norvegicus [3]): 5.6%
- Activity (Rattus norvegicus [4]): 26%

Compound: CCN1C[C@]2(OC(=O)c3ccccc3N)CC[C@H](OC)[C@]34C1[C@H](C[C@H]23)[C@@]1(O)C[C@H](OC)[C@H]2C[C@@H]4[C@]1(O)[C@H]2OC
- Activity (Rattus norvegicus [1]): 12.7%
- Activity (Rattus norvegicus [2]): 57.6%
- Activity (Canis familiaris [5]): 40%
- Activity (Canis familiaris [6]): 23.5%
- Activity (Rattus norvegicus [3]): 14.8%
- Activity (Rattus norvegicus [4]): 27.2%

Compound: CC[N+]1([O-])C[C@]2(COC)CC[C@H](OC)[C@]34C1[C@H]([C@H](OC)[C@H]23)[C@@]1(OC(C)=O)C[C@H](OC)[C@@]2(OC(C)=O)C[C@@H]4[C@@H]1[C@H]2OC(=O)c1ccccc1 (stereo not given in full)
- Activity (Rattus norvegicus [1]): 3.8%
- Activity (Rattus norvegicus [2]): 13.4%
- Activity (Rattus norvegicus [3]): 8.7%
- Activity (Rattus norvegicus [4]): 0%

Compound: CCN1C[C@@]2(COC)[C@H]3[C@@H](OC)[C@H]4C1[C@]3([C@@H](OC)C[C@H]2OC(C)=O)[C@@H]1C[C@]2(OC(C)=O)[C@@H](OC)C[C@@]4(OC(C)=O)[C@H]1[C@H]2OC(=O)c1ccc(OC)c(OC)c1
- Activity (Rattus norvegicus [1]): 5.4%
- Activity (Rattus norvegicus [2]): 0%
- Activity (Rattus norvegicus [3]): 0%
- Activity (Rattus norvegicus [4]): 13.2%

Compound: CC/C=C\C/C=C\C/C=C\CCCCCCCCC(=O)O[C@]12C[C@H](OC)[C@H]3C[C@H]([C@@H]1[C@H]3OC(=O)c1ccc(OC)c(OC)c1)[C@@]13C4[C@@H]2[C@H](OC)[C@@H]1[C@](COC)(CN4CC)[C@H](O)C[C@@H]3OC
- Activity (Rattus norvegicus [1]): 8.5%
- Activity (Rattus norvegicus [2]): 53.4%
- Activity (Rattus norvegicus [3]): 24.5%
- Activity (Rattus norvegicus [4]): 30.3%

Compound: CCN1C[C@]2(COC)CC[C@H](OC)[C@]34C1[C@H](C[C@H]23)[C@H]1C[C@@H](OC)[C@@]2(O)C[C@@H]4[C@@H]1[C@H]2OC(=O)c1ccccc1
- Activity (Rattus norvegicus [1]): 0%
- Activity (Rattus norvegicus [2]): 27.6%
- Activity (Rattus norvegicus [3]): 3%
- Activity (Rattus norvegicus [4]): 22.6%

Compound: CCN1C[C@]2(COC)CC[C@H](OC)[C@]34C1[C@H]([C@H](OC)[C@H]23)[C@@]1(OC(=O)c2cccc3cc5ccccc5cc23)C=C[C@@]2(O)C[C@@H]4[C@@H]1[C@H]2OC(=O)c1ccccc1
- Activity (Rattus norvegicus [1]): 3.7%
- Activity (Rattus norvegicus [2]): 9.2%
- Activity (Rattus norvegicus [3]): 3.8%
- Activity (Rattus norvegicus [4]): 0%

Compound: CCN1C[C@@]2(COC)[C@H]3[C@@H](OC)[C@H]4C1[C@]3([C@@H](OC)C[C@H]2OC(C)=O)[C@@H]1C[C@H]2[C@H](OC(=O)c3ccc(OC)c(OC)c3)[C@@H]1[C@]4(OC(C)=O)C[C@@H]2OC
- Activity (Rattus norvegicus [7]): Active
- Activity (Rattus norvegicus [8]): Active

Compound: CCN1C[C@]2(COC)CC[C@H](OC)[C@]34C1[C@H]([C@H](OC)[C@H]23)[C@@]1(OC(=O)c2ccc(N)cc2)C[C@H](OC)[C@@]2(O)C[C@@H]4[C@@H]1[C@H]2OC(=O)c1ccccc1
- Activity (Rattus norvegicus [1]): 8.4%
- Activity (Rattus norvegicus [2]): 38%
- Activity (Rattus norvegicus [3]): 14.8%
- Activity (Rattus norvegicus [4]): 42.4%
